Experimental data from patent US4416884A, “Piperazinylbenzoheterocyclic compounds” (Otsuka Pharmaceutical Co., Ltd., priority 1978, dated 1983).
Converted amounts (≈) assume the structure as drawn. Where two headings read alike, the source gives them in different places.

Key:
Experiment in all cases: antimicrobial activity, serial dilution method on agar plate
Format in all cases: cell-based
[1] = system: Bacillus subtilis PCI 219
Procedure, shortened: (§1)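 Reported figure is the lowest compound level (mcg/ml) inhibiting growth on Heart Infusion agar in a serial plate dilution. Suspensions of 1×10^8 and 1×10^6 cells/ml served as inocula.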

[2] = system: Salmonella typhi 0-901 (NCTC 8393); details: Salmonella enterica
Procedure, shortened: as §1

[3] = system: Serattia marcescens IFO 12648
Procedure, shortened: as §1

[4] = system: Pseudomonas maltophilia IFO 12692; details: Stenotrophomonas maltophilia, IFO12692, read-out: Minimum Inhibitory Concentration
Procedure, shortened: as §1

[5] = system: Corinebacterium diphteriae
Procedure, shortened: as §1

[6] = system: Klebsiella pneumoniae ST-101
Procedure, shortened: as §1

[7] = system: Escherichia Coli NIHJ JC-2 (IFO 12734); details: Escherichia coli, read-out: Minimum Inhibitory Concentration
Procedure, shortened: as §1

[8] = system: Yersinia enterocolitica 0-3
Procedure, shortened: as §1

Hafnia alvei IFO 3731 = details: read-out: Minimum Inhibitory Concentration
Procedure, shortened: as §1

[9] = system: Enterobacter aerogenes IFO 12979; details: Klebsiella aerogenes
Procedure, shortened: as §1

Shigella Sonnei EW 33 = details: read-out: Minimum Inhibitory Concentration
Procedure, shortened: as §1

Proteus rettgeri NIH 96 = details: Providencia rettgeri
Procedure, shortened: as §1

[10] = system: Streptococcus pneumoniae Type I
Procedure, shortened: as §1

[11] = system: Streptococcus pneumoniae Type II
Procedure, shortened: as §1

[12] = system: Pseudomonas aeruginosa ATCC 10145
Procedure, shortened: as §1

Enterobacter cloacae = system: Enterobacter cloacae
Procedure, shortened: as §1

[13] = system: Pseudomonas putida IFO 13696; details: read-out: Minimum Inhibitory Concentration
Procedure, shortened: as §1

[14] = system: Proteus morganii IID Kono; details: Morganella morganii
Procedure, shortened: as §1

[15] = system: Streptococcus pyogenes IID S-23
Procedure, shortened: as §1

[16] = system: Pseudomonas aeruginosa E-2
Procedure, shortened: as §1

Escherichia Coli NIHJ = details: read-out: Minimum Inhibitory Concentration
Procedure, shortened: as §1

[17] = system: Proteus vulgaris IID OX-19; details: read-out: Minimum Inhibitory Concentration
Procedure, shortened: as §1

[18] = system: Streptococcus pyogenes IID Cook
Procedure, shortened: as §1

[19] = system: Staphylococcus aureus FDA 209 P
Procedure, shortened: as §1

Klebsiella pneumoniae = system: Klebsiella pneumoniae
Procedure, shortened: as §1

[20] = system: Pseudomonas aeruginosa NCTC 10490
Procedure, shortened: as §1

[21] = system: Streptococcus pneumoniae Type III
Procedure, shortened: as §1

[22] = read-out: Minimum Inhibitory Concentration, inoculum 1 × 10^6 cells/ml
[23] = read-out: Minimum Inhibitory Concentration, inoculum 1 × 10^8 cells/ml

`CCn1cc(C(=O)O)c(=O)c2ccc(C)nc21` [E] was tested, and the MIC ([1]; PCI219, read-out: Minimum Inhibitory Concentration, inoculum 1 × 10^6 cells/ml) was 3.1 µg/mL (≈ 13.3 µM), the MIC ([1]; PCI219, read-out: Minimum Inhibitory Concentration, inoculum 1 × 10^8 cells/ml) was 6.3 µg/mL (≈ 27.1 µM) and the MIC [2, 22] was 3.1 µg/mL (≈ 13.3 µM). It also gave an MIC [2, 23] of 3.1 µg/mL (≈ 13.3 µM), an MIC [3, 22] of 3.1 µg/mL (≈ 13.3 µM) and an MIC [3, 23] of 3.1 µg/mL (≈ 13.3 µM). The MIC [4] was > 100 µg/mL, the MIC [5, 22] was > 100 µg/mL and the MIC [5, 23] was > 100 µg/mL. It also gave an MIC ([6]; ST101, read-out: Minimum Inhibitory Concentration, inoculum 1 × 10^6 cells/ml) of 1.6 µg/mL (≈ 6.89 µM), an MIC ([6]; ST101, read-out: Minimum Inhibitory Concentration, inoculum 1 × 10^8 cells/ml) of 1.6 µg/mL (≈ 6.89 µM) and an MIC ([7]; inoculum 1 × 10^6 cells/ml) of 3.1 µg/mL (≈ 13.3 µM). For the same compound, the MIC ([7]; inoculum 1 × 10^8 cells/ml) was 3.1 µg/mL (≈ 13.3 µM), the MIC ([8]; Yersinia enterocolitica, 03, read-out: Minimum Inhibitory Concentration, inoculum 1 × 10^6 cells/ml) was 1.6 µg/mL (≈ 6.89 µM) and the MIC ([8]; Yersinia enterocolitica, 03, read-out: Minimum Inhibitory Concentration, inoculum 1 × 10^8 cells/ml) was 12.5 µg/mL (≈ 53.8 µM). It also gave an MIC (Hafnia alvei IFO 3731; IFO3731, inoculum 1 × 10^6 cells/ml) of 50 µg/mL (≈ 215 µM), an MIC (Hafnia alvei IFO 3731; IFO3731, inoculum 1 × 10^8 cells/ml) of 100 µg/mL (≈ 431 µM) and an MIC ([9]; IFO12979, read-out: Minimum Inhibitory Concentration, inoculum 1 × 10^6 cells/ml) of 3.1 µg/mL (≈ 13.3 µM). For the same compound, the MIC ([9]; IFO12979, read-out: Minimum Inhibitory Concentration, inoculum 1 × 10^8 cells/ml) was 6.3 µg/mL (≈ 27.1 µM), the MIC (Shigella Sonnei EW 33; inoculum 1 × 10^6 cells/ml) was 3.1 µg/mL (≈ 13.3 µM) and the MIC (Shigella Sonnei EW 33; inoculum 1 × 10^8 cells/ml) was 3.1 µg/mL (≈ 13.3 µM). The MIC (Proteus rettgeri NIH 96; NIH96, read-out: Minimum Inhibitory Concentration, inoculum 1 × 10^6 cells/ml) was 0.8 µg/mL (≈ 3.44 µM), the MIC (Proteus rettgeri NIH 96; NIH96, read-out: Minimum Inhibitory Concentration, inoculum 1 × 10^8 cells/ml) was 1.6 µg/mL (≈ 6.89 µM) and the MIC [10, 22] was > 100 µg/mL. The MIC [10, 23] was > 100 µg/mL, the MIC [11, 22] was > 100 µg/mL and the MIC [11, 23] was > 100 µg/mL. For the same compound, the MIC ([12]; ATCC10145, read-out: Minimum Inhibitory Concentration, inoculum 1 × 10^6 cells/ml) was > 100 µg/mL, the MIC ([12]; ATCC10145, read-out: Minimum Inhibitory Concentration, inoculum 1 × 10^8 cells/ml) was > 100 µg/mL and the MIC (Enterobacter cloacae; [22]) was 3.1 µg/mL (≈ 13.3 µM). The MIC (Enterobacter cloacae; [23]) was 3.1 µg/mL (≈ 13.3 µM), the MIC ([13]; IFO13696, inoculum 1 × 10^6 cells/ml) was 50 µg/mL (≈ 215 µM) and the MIC ([13]; IFO13696, inoculum 1 × 10^8 cells/ml) was 100 µg/mL (≈ 431 µM). The MIC [14, 22] was 3.1 µg/mL (≈ 13.3 µM), the MIC [14, 23] was 6.3 µg/mL (≈ 27.1 µM) and the MIC ([15]; IIDS23, read-out: Minimum Inhibitory Concentration, inoculum 1 × 10^6 cells/ml) was > 100 µg/mL. The MIC ([15]; IIDS23, read-out: Minimum Inhibitory Concentration, inoculum 1 × 10^8 cells/ml) was > 100 µg/mL, the MIC ([16]; E2, read-out: Minimum Inhibitory Concentration, inoculum 1 × 10^6 cells/ml) was > 100 µg/mL and the MIC ([16]; E2, read-out: Minimum Inhibitory Concentration, inoculum 1 × 10^8 cells/ml) was > 100 µg/mL. For the same compound, the MIC (Escherichia Coli NIHJ; inoculum 1 × 10^6 cells/ml) was 1.6 µg/mL (≈ 6.89 µM), the MIC (Escherichia Coli NIHJ; inoculum 1 × 10^8 cells/ml) was 3.1 µg/mL (≈ 13.3 µM) and the MIC ([17]; IIDOX19, inoculum 1 × 10^6 cells/ml) was 3.1 µg/mL (≈ 13.3 µM). The MIC ([17]; IIDOX19, inoculum 1 × 10^8 cells/ml) was 3.1 µg/mL (≈ 13.3 µM), the MIC [18, 22] was > 100 µg/mL and the MIC [18, 23] was > 100 µg/mL. For the same compound, the MIC ([19]; FDA209, read-out: Minimum Inhibitory Concentration, inoculum 1 × 10^6 cells/ml) was 50 µg/mL (≈ 215 µM), the MIC ([19]; FDA209, read-out: Minimum Inhibitory Concentration, inoculum 1 × 10^8 cells/ml) was 50 µg/mL (≈ 215 µM) and the MIC (Klebsiella pneumoniae; [22]) was 3.1 µg/mL (≈ 13.3 µM). For the same compound, the MIC (Klebsiella pneumoniae; [23]) was 3.1 µg/mL (≈ 13.3 µM), the MIC ([20]; NCTC10490, read-out: Minimum Inhibitory Concentration, inoculum 1 × 10^6 cells/ml) was > 100 µg/mL and the MIC ([20]; NCTC10490, read-out: Minimum Inhibitory Concentration, inoculum 1 × 10^8 cells/ml) was > 100 µg/mL. The MIC [21, 22] was > 100 µg/mL and the MIC [21, 23] was > 100 µg/mL.
